Columns and labels:
[1] = tested on: contextually elicited conditioned gaping (anticipatory nausea) in rats; assay: Anticipatory nausea: contextually elicited conditioned gaping in rats; type: in vivo, male Sprague-Dawley rats; settings: for Contextually elicited conditioned gaping compared to VEH controls: 45 min before test
Description: Animal procedures complied with the Canadian Council on Animal Care, and the protocols were approved by the Institutional Animal Care Committee at University of Guelph. Animal studies are reported in compliance with the ARRIVE guidelines (Kilkenny et al., 2010; McGrath and Lilley, 2015). A total of 200 näive male Sprague-Dawley rats, obtained from Charles River Laboratories (St Constant, Quebec), were used for all in vivo studies. Rats were individually housed (for acute nausea studies) or pair-housed [for anticipatory nausea and light-dark emergence studies] in home cages made of opaque white plastic (48×26×20 cm), containing bed-o-cob bedding from Harlan Laboratories, Inc. (Mississauga, Ontario), a brown paper towel, and Crinkl'Nest™ from The Andersons, Inc. (Maumee, Ohio). Additionally, in the home cage, rats were provided with a soft white paper container that was 14 cm long and 12 cm in diameter. All rats were subjected to an ambient temperature of 21° C. and a 12/12 h light-dark schedule (lights off at 07:00 h) and maintained on food (Highland Rat Chow [8640]) and water ad libitum. For the acute and anticipatory nausea studies, their body weights ranged from 263 to 329 g on the day of conditioning. For the light-dark emergence studies, their body weights ranged from 320 to 387 g on the day of test.
For in vivo experiment 2, contextually elicited conditioned gaping (a model of anticipatory nausea) was measured using a distinctive conditioning chamber made of opaque black Plexiglass (22.5×26×20 cm) with an opaque lid that sat on a table with a clear glass top. A mirror beneath the chamber at a 45° angle facilitated viewing of the ventral surface of the rat to observe orofacial responses. The conditioning chamber was in a dark room next to a 25 W light source. A video camera that was fire-wired into a computer was focused on the mirror to record each rat's orofacial reactions during the 5 min test trial. The video tapes were later scored using ‘The Observer’ software. To assess activity, an activity chamber made of white Plexiglas (60×25×25 cm) was used, illuminated by a red light found in a different room that the contextual chamber was used to create a different context from the AN chamber. The activity of each rat was captured by video camera and sent to the Ethovision software program (Noldus, Inc., NL) to measure distance (cm) travelled.
To compare the potential of HU-580 and CBDA to reduce anticipatory nausea, the contextually elicited conditioned gaping paradigm was used (e.g. Limebeer et al., 2010; Rock et al., 2014). Rats underwent four conditioning trials during which the distinctive context was paired with 127 mg·kg^−1 LiCl. On each trial, rats were injected with LiCl and then immediately placed in the conditioning chamber for 30 min. This procedure was repeated four times with a 48 h interval between conditioning trials. For the test trial, rats were randomly assigned to one of five treatment groups (n=6 per group): VEH, 0.1 μg·kg^−1 CBDA, 0.1 μg·kg^−1 HU-580, 0.01 μg·kg^−1 CBDA, […] HU-580. Pretreatments were injected 45 min before the rats were given an saline injection (20 mL·kg^−1 i.p.) and individually placed in the conditioning (contextual) chamber for 5 min, and orofacial responses were video recorded. To investigate the mechanism of action of HU-580, two additional groups of rats were administered 0.1 mg·kg^−1 WAY-VEH (n=8), 0.1 mg·kg^−1 WAY-0.1 μg·kg^−1 HU-580 (n=8). VEH or WAY100635 were administered 15 min before […] or VEH. The video tapes from the test trial were scored by an observer blind to the experimental conditions using ‘The Observer’ for the behaviors of gaping (large openings of the mouth and jaw, with lower incisors exposed). […]

[2] = tested on: locomotor activity of rats; assay: Locomotor activity test after the anticipatory nausea test; type: in vivo, male Sprague-Dawley rats; settings: 0.01 or 0.1 μg·kg−1 i.p.; 15 min test; ANOVA F(6, 39)=0.9, P>0.05
Method: For in vivo experiment 2, contextually elicited conditioned gaping (a model of anticipatory nausea) was measured using a distinctive conditioning chamber made of opaque black Plexiglass (22.5×26×20 cm) with an opaque lid that sat on a table with a clear glass top. A mirror beneath the chamber at a 45° angle facilitated viewing of the ventral surface of the rat to observe orofacial responses. The conditioning chamber was in a dark room next to a 25 W light source. A video camera that was fire-wired into a computer was focused on the mirror to record each rat's orofacial reactions during the 5 min test trial. The video tapes were later scored using ‘The Observer’ software. […]
To compare the potential of HU-580 and CBDA to reduce anticipatory nausea, the contextually elicited conditioned gaping paradigm was used (e.g. Limebeer et al., 2010; Rock et al., 2014). […] Pretreatments were injected 45 min before the rats were given an saline injection (20 mL·kg^−1 i.p.) and individually placed in the conditioning (contextual) chamber for 5 min, and orofacial responses were video recorded. […] The video tapes from the test trial were scored by an observer blind to the experimental conditions using ‘The Observer’ for the behaviors of gaping (large openings of the mouth and jaw, with lower incisors exposed). […]

Row | Compound | Contextually elicited conditioned gaping compared to VEH controls ([1]; 0.01 μg·kg−1 i.p.) | Contextually elicited conditioned gaping compared to VEH controls ([1]; 0.1 μg·kg−1 i.p., P<0.05) | Distance moved in locomotor activity test [2] | Suppressive effect on anticipatory nausea after 5-HT1A antagonist pretreatment ([1]; 0.1 μg·kg−1 HU-580 i.p., WAY100635 0.1 mg·kg−1 15 min before) | Dose as low as which contextually elicited conditioned gaping is suppressed ([1]; i.p., rats) [µg/kg]
1 | C=C(C)[C@@H]1CCC(C)=C[C@H]1c1c(O)cc(CCCCC)c(C(=O)O)c1O [CBDA, Cannabidiolic acid] | but not CBDA, suppressed contextually elicited conditioned gaping | reduced conditioned gaping | no significant effect on distance moved | – | –
2 | C=C(C)[C@@H]1CCC(C)=C[C@H]1c1c(O)cc(CCCCC)c(C(=O)OC)c1O [HU-580, Cannabidiolic Acid Methyl Ester] | gaping significantly less than VEH controls | reduced conditioned gaping | no significant effect on distance moved | blocked by pretreatment with WAY100635 | 0.01
